For test [1], the system named is acetylcholinesterase. The conditions noted are these: cited from earlier work.
Test [2] relates to (S)-scoulerine. In words: TNMT N-methylation test: GCY1101 versus GCY1127 fed (S)-scoulerine. Type of test: cell-based, Saccharomyces cerevisiae. The protocol: When cells of the Block 2-Block 3 double integrant were incubated with (S)-scoulerine, compounds with exact masses of 342.1710 m/z and 340.1548 m/z were detected in addition to expected sanguinarine pathway intermediates. These exact masses, and their CIDs, correspond to N-methylscoulerine and N-methylcheilanthifoline, respectively^36. […] To determine whether TNMT was responsible for the N-methylation of cheilanthifoline and scoulerine, the Block 2 integrant strain harbouring CPR on a plasmid (strain GCY1101) was compared with the Block 2 integrant strain harbouring both CPR and TNMT on a plasmid (strain GCY1127).
Because the applicants lacked standards to quantify the N-methylated products and since the three compounds are similar in structure, they assumed equal ionization efficiency and estimated their relative proportions by peak area: when strain GCY1127 is fed (S)-scoulerine, the expected product N-methylstylopine is 33%, while N-methylscoulerine is 7% and N-methylcheilanthifoline is 60% (FIG. 8B).

This is an account of results in patent US20160340704A1, “METHOD OF MAKING A BENZYLISOQUINOLINE ALKALOID (BIA) METABOLITE, ENZYMES THEREFORE” (VALORBEC SOCIÉTÉ EN COMMANDITE, priority 2014, published 2016).

Regarding `COc1cc2c(cc1O)[C@@H]1Cc3ccc(OC)c(O)c3C[N@+]1(C)CC2` [N-methylscoulerine], in test [1], the described activity entry was “acetylcholinesterase inhibitor”.

B1: TNMT: Papaver somniferum tetrahydroprotoberberine cis-N-methyltransferase, SEQ ID NO: 58 (protein, listed as Papaver somniferum)
chain: MGSIDEVKKESAGETLGRLLKGEIKDEELKKLIKFQFEKRLQWGYKSSHQEQLSFNLDFIKSLKKMEMSGEIETMNKETYELPSEFLEAVFGKTVKQSMCYFTHESATIDEAEEAAHELYCERAQIKDGQTVLDIGCGQGGLVLYIAQKYKNCHVTGLTNSKAQVNYLLKQAEKLGLTNVDAILADVTQYESDKTYDRLLMIEAIEHMKNLQLFMKKLSTWMTKESLLFVDHVCHKTFAHFFEAVDEDDWYSGFIFPPGCATILAANSLLYFQDDVSVVDHWVVNGMHMARSVDIWRKALDKNMEAAKEILLPGLGGSHETVNGVVTHIRTFCMGGYEQFSMNNGDEWMVAQLLFKKK
Consider B1, for which the “substrate acceptance for N-methylation” value in test [2] was “accepts both scoulerine and cheilanthifoline as substrates”.
